The source of these data is ChEMBL document CHEMBL3627608, “Crystal structures of human RIP2 kinase catalytic domain complexed with ATP-competitive inhibitors: Foundations for understanding inhibitor selectivity” (Bioorg Med Chem, 2015).

Experiment [1] concerns the target SRSF protein kinase 1 (Homo sapiens) (UniProt Q96SB4). Nature of the experiment: Inhibition of SRPK1 (unknown origin) at 10 uM after 120 mins P33 radiolabeled kinase activity assay.
The target in experiment [2] is Serine/threonine-protein kinase SIK1 (Homo sapiens) (UniProt P57059). Nature of the experiment: Inhibition of SIK1 (unknown origin) at 10 uM after 120 mins P33 radiolabeled kinase activity assay.
The target of experiment [3] is Tyrosine-protein kinase Srms (Homo sapiens) (UniProt Q9H3Y6). Nature of the experiment: Inhibition of SRMS (unknown origin) at 10 uM after 120 mins P33 radiolabeled kinase activity assay.
Experiment [4] addresses T1, Serine/threonine-protein kinase Nek5 (Homo sapiens) (UniProt Q6P3R8).
T1 sequence (whole entry): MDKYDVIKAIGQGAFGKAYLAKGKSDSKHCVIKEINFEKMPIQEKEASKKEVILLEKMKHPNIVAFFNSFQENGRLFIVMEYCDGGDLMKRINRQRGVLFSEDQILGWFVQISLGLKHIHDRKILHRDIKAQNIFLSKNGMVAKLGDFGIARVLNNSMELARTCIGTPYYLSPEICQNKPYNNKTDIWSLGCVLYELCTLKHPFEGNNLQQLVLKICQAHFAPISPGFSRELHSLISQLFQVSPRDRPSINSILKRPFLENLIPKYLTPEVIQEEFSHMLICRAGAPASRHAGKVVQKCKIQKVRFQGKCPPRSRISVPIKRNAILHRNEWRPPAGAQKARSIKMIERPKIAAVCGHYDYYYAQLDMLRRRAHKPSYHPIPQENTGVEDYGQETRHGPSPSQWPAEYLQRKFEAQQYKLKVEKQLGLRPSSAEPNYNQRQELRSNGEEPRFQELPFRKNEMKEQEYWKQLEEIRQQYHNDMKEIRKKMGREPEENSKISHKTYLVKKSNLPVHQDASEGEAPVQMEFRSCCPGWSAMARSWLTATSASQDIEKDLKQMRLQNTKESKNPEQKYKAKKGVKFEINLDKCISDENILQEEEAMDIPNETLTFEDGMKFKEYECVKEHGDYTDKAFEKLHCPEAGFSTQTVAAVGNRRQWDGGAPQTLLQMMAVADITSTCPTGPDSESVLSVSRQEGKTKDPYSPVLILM
The experiment in a line: Inhibition of NEK5 (unknown origin) at 10 uM after 120 mins P33 radiolabeled kinase activity assay.

Experiment [5] deals with Tyrosine-protein kinase ABL1 (Homo sapiens) (UniProt P00519). Nature of the experiment: Inhibition of ABL1 (unknown origin) at 10 uM after 120 mins P33 radiolabeled kinase activity assay.
For experiment [6], the target named is RAC-alpha serine/threonine-protein kinase (Homo sapiens) (UniProt P31749). Nature of the experiment: Inhibition of AKT1 (unknown origin) at 10 uM after 120 mins P33 radiolabeled kinase activity assay.
Experiment [7] concerns the target T2, Aurora kinase A (Homo sapiens) (UniProt O14965).
T2 sequence (whole entry): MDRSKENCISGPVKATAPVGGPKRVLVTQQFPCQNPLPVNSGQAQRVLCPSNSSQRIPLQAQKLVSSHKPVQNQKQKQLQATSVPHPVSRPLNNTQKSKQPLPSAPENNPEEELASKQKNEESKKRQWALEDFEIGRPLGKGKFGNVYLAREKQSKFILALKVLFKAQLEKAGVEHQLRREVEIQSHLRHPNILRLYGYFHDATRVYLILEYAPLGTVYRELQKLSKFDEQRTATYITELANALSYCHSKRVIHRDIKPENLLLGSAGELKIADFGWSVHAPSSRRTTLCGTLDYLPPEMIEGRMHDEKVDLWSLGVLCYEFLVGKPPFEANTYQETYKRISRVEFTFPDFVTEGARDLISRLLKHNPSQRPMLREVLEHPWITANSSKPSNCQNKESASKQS
The experiment in a line: Inhibition of Aurora A (unknown origin) at 10 uM after 120 mins P33 radiolabeled kinase activity assay.

Experiment [8] addresses Serine/threonine-protein kinase PAK 2 (Homo sapiens) (UniProt Q13177). The experiment in a line: Inhibition of PAK2 (unknown origin) at 10 uM after 120 mins P33 radiolabeled kinase activity assay.
The target of experiment [9] is MAP kinase-interacting serine/threonine-protein kinase 2 (Homo sapiens) (UniProt Q9HBH9). The experiment in a line: Inhibition of MNK2 (unknown origin) at 10 uM after 120 mins P33 radiolabeled kinase activity assay.
For experiment [10], the target named is T3, Serine/threonine-protein kinase D1 (Homo sapiens) (UniProt Q15139).
T3 sequence (whole entry): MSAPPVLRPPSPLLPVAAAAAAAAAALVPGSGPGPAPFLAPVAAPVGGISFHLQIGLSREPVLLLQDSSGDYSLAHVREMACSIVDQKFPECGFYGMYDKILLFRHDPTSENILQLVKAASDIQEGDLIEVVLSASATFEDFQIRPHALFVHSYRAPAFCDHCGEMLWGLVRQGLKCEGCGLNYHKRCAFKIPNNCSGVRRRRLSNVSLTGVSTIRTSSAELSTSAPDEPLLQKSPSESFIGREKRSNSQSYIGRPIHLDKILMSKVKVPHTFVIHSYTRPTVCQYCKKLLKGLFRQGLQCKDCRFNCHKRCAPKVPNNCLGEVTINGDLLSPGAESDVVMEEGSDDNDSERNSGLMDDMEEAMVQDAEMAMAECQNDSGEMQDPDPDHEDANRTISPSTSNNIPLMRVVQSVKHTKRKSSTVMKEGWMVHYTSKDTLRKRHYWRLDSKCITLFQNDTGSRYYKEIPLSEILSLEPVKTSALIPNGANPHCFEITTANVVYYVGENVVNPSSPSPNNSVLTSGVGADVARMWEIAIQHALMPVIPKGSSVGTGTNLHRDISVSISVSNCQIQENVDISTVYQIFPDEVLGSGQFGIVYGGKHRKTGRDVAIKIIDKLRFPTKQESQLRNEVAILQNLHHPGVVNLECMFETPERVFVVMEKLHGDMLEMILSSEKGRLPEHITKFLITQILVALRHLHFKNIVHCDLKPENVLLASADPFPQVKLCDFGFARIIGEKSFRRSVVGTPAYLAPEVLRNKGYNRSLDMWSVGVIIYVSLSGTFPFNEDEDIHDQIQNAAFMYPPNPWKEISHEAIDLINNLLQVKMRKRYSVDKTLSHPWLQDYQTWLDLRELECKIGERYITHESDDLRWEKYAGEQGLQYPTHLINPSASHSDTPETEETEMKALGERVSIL
Nature of the experiment: Inhibition of PKCmu (unknown origin) at 10 uM after 120 mins P33 radiolabeled kinase activity assay.

The target of experiment [11] is Serine/threonine-protein kinase PAK 6 (Homo sapiens) (UniProt Q9NQU5). Nature of the experiment: Inhibition of PAK6 (unknown origin) at 10 uM after 120 mins P33 radiolabeled kinase activity assay.

Each structure is given as a SMILES string.

In general, inhibition refers to the relative decrease from the control value, in per cent.

Chain of Serine/threonine-protein kinase PAK 2 (Homo sapiens) (Q13177 whole entry): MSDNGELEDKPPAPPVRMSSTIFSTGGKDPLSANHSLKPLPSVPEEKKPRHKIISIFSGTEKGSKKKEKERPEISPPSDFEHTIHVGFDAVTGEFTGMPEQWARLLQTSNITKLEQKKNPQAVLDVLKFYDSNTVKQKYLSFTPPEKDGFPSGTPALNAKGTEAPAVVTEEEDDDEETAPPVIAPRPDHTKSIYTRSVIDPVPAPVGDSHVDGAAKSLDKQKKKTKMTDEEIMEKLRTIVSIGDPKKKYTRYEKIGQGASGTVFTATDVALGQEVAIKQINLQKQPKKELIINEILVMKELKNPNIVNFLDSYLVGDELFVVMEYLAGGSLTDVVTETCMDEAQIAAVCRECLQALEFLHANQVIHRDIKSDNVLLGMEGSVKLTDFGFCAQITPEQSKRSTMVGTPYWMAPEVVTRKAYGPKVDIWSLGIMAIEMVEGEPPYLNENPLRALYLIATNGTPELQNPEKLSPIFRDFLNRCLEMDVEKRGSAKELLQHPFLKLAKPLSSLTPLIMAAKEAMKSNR
Chain of Tyrosine-protein kinase ABL1 (Homo sapiens) (P00519 whole entry): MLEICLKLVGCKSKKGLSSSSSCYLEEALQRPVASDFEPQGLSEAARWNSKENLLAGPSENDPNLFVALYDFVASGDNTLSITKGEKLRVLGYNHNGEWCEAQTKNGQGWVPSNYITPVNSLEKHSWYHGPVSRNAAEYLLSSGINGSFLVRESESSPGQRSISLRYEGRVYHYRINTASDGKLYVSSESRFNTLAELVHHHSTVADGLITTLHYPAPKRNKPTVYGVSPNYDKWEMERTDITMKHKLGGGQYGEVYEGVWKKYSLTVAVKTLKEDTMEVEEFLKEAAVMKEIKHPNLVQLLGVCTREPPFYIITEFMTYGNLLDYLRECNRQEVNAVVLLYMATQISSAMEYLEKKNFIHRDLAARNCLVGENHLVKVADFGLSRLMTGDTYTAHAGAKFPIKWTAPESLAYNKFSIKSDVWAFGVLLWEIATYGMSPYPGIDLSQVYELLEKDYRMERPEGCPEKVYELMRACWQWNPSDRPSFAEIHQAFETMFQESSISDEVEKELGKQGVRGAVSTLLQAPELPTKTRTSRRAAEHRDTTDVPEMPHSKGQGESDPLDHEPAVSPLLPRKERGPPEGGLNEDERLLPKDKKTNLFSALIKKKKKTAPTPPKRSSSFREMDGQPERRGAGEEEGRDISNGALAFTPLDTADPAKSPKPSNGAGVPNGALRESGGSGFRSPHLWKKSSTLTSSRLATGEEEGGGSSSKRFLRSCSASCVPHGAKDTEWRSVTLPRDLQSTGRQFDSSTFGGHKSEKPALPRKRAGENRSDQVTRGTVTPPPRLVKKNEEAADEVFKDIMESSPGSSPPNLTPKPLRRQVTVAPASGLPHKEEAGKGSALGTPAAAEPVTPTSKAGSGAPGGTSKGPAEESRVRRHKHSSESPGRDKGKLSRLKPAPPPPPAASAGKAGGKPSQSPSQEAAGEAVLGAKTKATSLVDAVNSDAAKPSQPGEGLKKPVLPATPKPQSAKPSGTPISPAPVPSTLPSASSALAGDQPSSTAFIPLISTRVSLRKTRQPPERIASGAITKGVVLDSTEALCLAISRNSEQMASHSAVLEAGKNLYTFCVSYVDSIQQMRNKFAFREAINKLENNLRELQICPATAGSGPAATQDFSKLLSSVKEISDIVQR
Chain of Serine/threonine-protein kinase SIK1 (Homo sapiens) (P57059 whole entry): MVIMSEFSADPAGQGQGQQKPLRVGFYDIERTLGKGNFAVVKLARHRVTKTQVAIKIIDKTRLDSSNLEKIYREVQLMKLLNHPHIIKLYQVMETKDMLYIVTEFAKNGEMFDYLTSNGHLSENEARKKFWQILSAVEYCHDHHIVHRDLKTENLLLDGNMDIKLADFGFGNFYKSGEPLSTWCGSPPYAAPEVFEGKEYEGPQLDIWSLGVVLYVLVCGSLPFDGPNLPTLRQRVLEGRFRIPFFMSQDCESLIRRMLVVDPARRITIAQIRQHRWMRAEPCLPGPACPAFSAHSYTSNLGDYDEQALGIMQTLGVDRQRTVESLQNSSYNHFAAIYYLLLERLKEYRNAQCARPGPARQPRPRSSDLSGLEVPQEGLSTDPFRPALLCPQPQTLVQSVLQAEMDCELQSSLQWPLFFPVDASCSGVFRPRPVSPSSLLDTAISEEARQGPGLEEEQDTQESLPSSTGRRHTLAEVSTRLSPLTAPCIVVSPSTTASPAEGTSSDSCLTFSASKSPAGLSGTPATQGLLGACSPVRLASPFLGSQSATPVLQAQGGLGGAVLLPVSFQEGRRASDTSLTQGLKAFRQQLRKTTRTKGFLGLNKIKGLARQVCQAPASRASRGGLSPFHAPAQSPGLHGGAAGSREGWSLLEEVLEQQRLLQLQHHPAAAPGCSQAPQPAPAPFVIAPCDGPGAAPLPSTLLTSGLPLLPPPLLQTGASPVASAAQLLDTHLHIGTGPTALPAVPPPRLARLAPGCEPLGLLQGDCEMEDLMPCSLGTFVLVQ
Chain of MAP kinase-interacting serine/threonine-protein kinase 2 (Homo sapiens) (Q9HBH9 whole entry, looked up): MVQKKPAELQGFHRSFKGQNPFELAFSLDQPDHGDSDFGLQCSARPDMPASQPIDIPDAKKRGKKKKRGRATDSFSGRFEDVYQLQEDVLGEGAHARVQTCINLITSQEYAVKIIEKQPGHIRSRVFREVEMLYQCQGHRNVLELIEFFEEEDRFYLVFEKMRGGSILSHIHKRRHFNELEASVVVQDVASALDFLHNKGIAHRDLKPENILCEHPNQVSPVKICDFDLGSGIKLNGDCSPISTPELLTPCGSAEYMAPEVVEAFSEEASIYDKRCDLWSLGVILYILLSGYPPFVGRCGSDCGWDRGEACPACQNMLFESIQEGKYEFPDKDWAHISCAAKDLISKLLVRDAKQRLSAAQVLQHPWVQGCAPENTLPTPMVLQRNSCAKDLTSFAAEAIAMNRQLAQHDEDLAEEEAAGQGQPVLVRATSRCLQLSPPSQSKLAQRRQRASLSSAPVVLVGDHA
Chain of Tyrosine-protein kinase Srms (Homo sapiens) (Q9H3Y6 whole entry): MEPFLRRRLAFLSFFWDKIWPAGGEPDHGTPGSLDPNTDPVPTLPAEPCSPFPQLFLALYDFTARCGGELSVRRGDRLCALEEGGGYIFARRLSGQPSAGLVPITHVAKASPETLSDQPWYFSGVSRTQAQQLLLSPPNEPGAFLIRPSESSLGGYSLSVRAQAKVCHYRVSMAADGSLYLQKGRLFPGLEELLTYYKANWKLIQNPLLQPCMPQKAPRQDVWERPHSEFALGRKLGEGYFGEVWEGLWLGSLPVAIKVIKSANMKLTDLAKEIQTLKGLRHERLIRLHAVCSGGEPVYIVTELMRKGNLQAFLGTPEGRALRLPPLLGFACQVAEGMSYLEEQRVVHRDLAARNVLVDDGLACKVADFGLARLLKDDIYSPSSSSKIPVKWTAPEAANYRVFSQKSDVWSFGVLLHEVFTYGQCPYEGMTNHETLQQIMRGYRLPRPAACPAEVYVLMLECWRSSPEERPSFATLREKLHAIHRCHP
Chain of Serine/threonine-protein kinase PAK 6 (Homo sapiens) (Q9NQU5 whole entry, looked up): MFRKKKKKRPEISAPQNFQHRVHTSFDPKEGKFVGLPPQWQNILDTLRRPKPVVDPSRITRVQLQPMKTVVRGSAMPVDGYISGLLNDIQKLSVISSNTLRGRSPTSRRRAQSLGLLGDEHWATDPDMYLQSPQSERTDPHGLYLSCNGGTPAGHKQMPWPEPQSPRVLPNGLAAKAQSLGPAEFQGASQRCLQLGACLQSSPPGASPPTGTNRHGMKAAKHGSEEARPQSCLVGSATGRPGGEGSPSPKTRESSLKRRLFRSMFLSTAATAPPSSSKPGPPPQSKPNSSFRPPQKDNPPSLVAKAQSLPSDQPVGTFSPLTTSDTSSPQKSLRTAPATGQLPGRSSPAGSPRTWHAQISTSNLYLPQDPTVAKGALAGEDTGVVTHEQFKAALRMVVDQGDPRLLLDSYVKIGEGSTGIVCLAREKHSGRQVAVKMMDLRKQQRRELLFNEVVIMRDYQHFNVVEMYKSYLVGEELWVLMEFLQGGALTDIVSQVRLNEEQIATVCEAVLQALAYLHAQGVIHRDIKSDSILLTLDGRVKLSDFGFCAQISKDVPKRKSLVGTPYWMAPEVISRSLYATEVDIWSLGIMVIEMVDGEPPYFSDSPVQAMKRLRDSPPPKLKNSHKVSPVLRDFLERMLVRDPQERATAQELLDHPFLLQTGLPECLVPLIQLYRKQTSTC
Chain of RAC-alpha serine/threonine-protein kinase (Homo sapiens) (P31749 whole entry): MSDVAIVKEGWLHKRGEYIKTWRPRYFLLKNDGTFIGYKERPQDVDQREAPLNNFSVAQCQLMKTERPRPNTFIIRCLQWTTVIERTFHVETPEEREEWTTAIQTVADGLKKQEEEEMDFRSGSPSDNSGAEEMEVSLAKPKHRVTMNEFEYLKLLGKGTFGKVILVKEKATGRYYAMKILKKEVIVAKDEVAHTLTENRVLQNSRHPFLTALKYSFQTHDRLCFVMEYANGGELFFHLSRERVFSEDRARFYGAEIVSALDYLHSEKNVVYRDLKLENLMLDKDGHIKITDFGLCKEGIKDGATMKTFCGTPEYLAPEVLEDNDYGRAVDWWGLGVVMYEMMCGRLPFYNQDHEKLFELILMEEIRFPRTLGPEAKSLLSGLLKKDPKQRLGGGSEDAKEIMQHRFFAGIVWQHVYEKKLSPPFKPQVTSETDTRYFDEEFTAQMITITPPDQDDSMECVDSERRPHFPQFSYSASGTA

`COCCNC(=O)c1ccc2c(c1)nc(-c1cnc(-c3ccc(Cl)cc3)[nH]1)n2CCOC`: the inhibition came out at 5.66% in [1]; 34.4% in [2]; 4.18% in experiment [3]; 9.53% in [4]; 65.6% in experiment [5]; 4.96% in experiment [6]. The inhibition in experiment [7] amounted to 13.9%; in experiment [8] it was 6.88%; in [9], 2.19%; in [10] it was 12.1%; in experiment [11] it was 3.33%.

For `CC(C)(C)c1cc(NC(=O)Nc2ccc(Oc3ccncc3)cc2)no1`, the inhibition in experiment [1] is 59.1%; in experiment [2] it was 22.6%; in experiment [3], -2.8%; in experiment [4], 27.3%; in experiment [5], 88.4%; in [6], 4.64%. Also, the inhibition in experiment [7] was 48.4%; in experiment [8] it was 9.28%; in [9], 99.2%; in experiment [10] it was 19.5%; in experiment [11] it was 8.88%.

As for `CS(=O)(=O)c1cccc(Nc2nccc(-c3sc(N4CCOCC4)nc3-c3cccc(NS(=O)(=O)c4c(F)cccc4F)c3)n2)c1`, the inhibition in experiment [1] was 18.5%; in experiment [2], 101%; in experiment [3], 98.4%; in experiment [4] it was 50.5%; in [5], 98.1%; in [6], 3.36%. The inhibition was found to be 83.4% in experiment [7]; 15.8% in experiment [8]; 81.5% in experiment [9]; 100% in experiment [10]; 17.4% in experiment [11].
